Test results published in PubChem BioAssay (NCI).
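How tested: cells in 96-well plates exposed to compound for 48 hours at five concentrations. GI50 is the concentration that inhibits growth by half. TGI: total growth inhibition.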

What was measured:
Assay in all cases: inhibition of tumour cell growth, NCI panel, 48 h
OVCAR-5 ovarian = system: OVCAR-5 ovarian
T-47D breast = system: T-47D breast
NCI-H23 lung = system: NCI-H23 lung
786-0 renal = system: 786-0 renal
NCI-H522 lung = system: NCI-H522 lung
SW-620 colon = system: SW-620 colon
ACHN renal = system: ACHN renal
NCI/ADR-RES ovarian = system: NCI/ADR-RES ovarian
UACC-62 melanoma = system: UACC-62 melanoma
U251 CNS = system: U251 CNS

| Structure (SMILES) | GI50 (OVCAR-5 ovarian) | TGI (OVCAR-5 ovarian) | GI50 (T-47D breast) | TGI (T-47D breast) | GI50 (NCI-H23 lung) | TGI (NCI-H23 lung) | GI50 (786-0 renal) | TGI (786-0 renal) | GI50 (NCI-H522 lung) | TGI (NCI-H522 lung) | GI50 (SW-620 colon) | TGI (SW-620 colon) | GI50 (ACHN renal) | TGI (ACHN renal) | GI50 (NCI/ADR-RES ovarian) | TGI (NCI/ADR-RES ovarian) | GI50 (UACC-62 melanoma) | TGI (UACC-62 melanoma) | GI50 (U251 CNS) | TGI (U251 CNS) |
| --- | --- | --- | --- | --- | --- | --- | --- | --- | --- | --- | --- | --- | --- | --- | --- | --- | --- | --- | --- | --- |
| CCn1c(CO)nn(-c2cc(O[C@@H](C)C(F)(F)F)c(C(=O)Nc3c(F)cccc3Cl)cc2F)c1=O | > 100 µM | > 100 µM | 0.0723 µM | 86.2 µM | < 0.0438 µM | > 100 µM | < 0.0197 µM | > 78 µM | < 0.01 µM | > 100 µM | < 0.01 µM | > 100 µM | < 0.0122 µM | > 100 µM | < 0.0245 µM | > 93.5 µM | < 0.0217 µM | > 100 µM | < 0.01 µM | > 100 µM |
| CC(C)CNC(=O)O | – | > 100 µM | – | > 100 µM | – | > 100 µM | – | > 100 µM | – | > 100 µM | – | > 100 µM | – | > 100 µM | – | > 100 µM | – | > 100 µM | – | > 100 µM |
| O=C(COc1ccc(/C=C2\CSc3ccccc3C2=O)cc1)Nc1nccs1 | 18.2 µM | 32.8 µM | 13.5 µM | 42.4 µM | 11.7 µM | 24.3 µM | 14 µM | 27 µM | 1.92 µM | 4.17 µM | 2.7 µM | 7.12 µM | 13.5 µM | 26.4 µM | 21.4 µM | 66.5 µM | 5.32 µM | 19 µM | 6.93 µM | 19.5 µM |
| [Au+].[Au+].[Au+].[c-]1nccn1Cc1ccccc1.[c-]1nccn1Cc1ccccc1.[c-]1nccn1Cc1ccccc1 | 27.8 µM | 61.9 µM | 7.42 µM | 36.8 µM | 4.97 µM | 30.7 µM | 1.73 µM | 3.11 µM | 1.58 µM | 2.95 µM | 7.78 µM | > 19.7 µM | 14.3 µM | 28.6 µM | 58 µM | > 100 µM | 5.23 µM | 21.4 µM | 9.03 µM | – |
| C[C@]12CC[C@@H]3c4ccc(O)cc4CC[C@H]3[C@@H]1CC[C@@H]2NS(=O)(=O)c1cccc(F)c1 | 4.35 µM | 16.3 µM | 3.82 µM | 14.8 µM | 3.19 µM | 13.5 µM | 3.38 µM | 11.3 µM | 1.89 µM | 7.6 µM | 4.36 µM | 16.8 µM | 2.71 µM | 8.66 µM | 2.88 µM | 17 µM | 2.92 µM | 11.3 µM | 3.23 µM | 12.1 µM |
| COc1ccc2c(O)cc3c(c2c1)[C@H](CCl)CN3C(=O)c1cc2cc(NC(=O)CCN3CCOCC3)ccc2[se]1 | < 0.001 µM | 1.29 µM | < 0.001 µM | – | < 0.001 µM | 0.00121 µM | < 0.001 µM | < 0.001 µM | < 0.001 µM | 0.0298 µM | < 0.001 µM | 1.05 µM | < 0.001 µM | < 0.001 µM | < 0.001 µM | – | < 0.001 µM | < 0.001 µM | < 0.001 µM | 0.385 µM |
| COc1ccc(-c2ccc(/C=N/n3c(C)n[nH]c3=S)o2)c([N+](=O)[O-])c1 | > 100 µM | > 100 µM | > 100 µM | > 100 µM | > 100 µM | > 100 µM | 91.1 µM | > 100 µM | > 100 µM | > 100 µM | > 100 µM | > 100 µM | 93 µM | > 100 µM | > 100 µM | > 100 µM | > 100 µM | > 100 µM | – | – |
| CCCCC1(CN2CCOCC2)S/C(=N/c2nc(CC(=O)OCC)cs2)NC1=O (centres undefined) | 35.4 µM | > 100 µM | 41.5 µM | > 100 µM | – | – | 37.9 µM | > 100 µM | 32.1 µM | > 100 µM | 35.9 µM | > 100 µM | 33.9 µM | > 100 µM | 40.1 µM | > 100 µM | 28.3 µM | > 100 µM | 33.9 µM | > 100 µM |
| Oc1cn(-c2ccc(Cl)cc2)nc1-c1n[nH]c(=S)n1C1CCCCC1 | 3.05 µM | > 100 µM | 6.62 µM | > 100 µM | 0.322 µM | 1.98 µM | 1.82 µM | > 100 µM | 0.373 µM | > 100 µM | 0.475 µM | > 100 µM | – | – | – | 1.05 µM | – | > 100 µM | 0.467 µM | > 100 µM |
| C[C@]12CC[C@H](O)C[C@H]1CC[C@@H]1[C@@H]2CC[C@]2(C)[C@@H](C3=CC(=O)OC3)CC[C@]12O | – | 1.93 µM | – | 0.858 µM | – | – | 0.0337 µM | 0.142 µM | – | 0.436 µM | – | 1.57 µM | – | 0.825 µM | – | 0.573 µM | 0.32 µM | 1.09 µM | – | 1.52 µM |
| COc1ccc2c(c1)[C@@]13CCCC[C@H]1[C@@H](C2)N(C)CC3=O | – | 33.3 µM | – | 33.2 µM | – | 31.8 µM | – | 32.8 µM | – | 32.9 µM | – | – | – | 30.4 µM | – | 84.4 µM | – | 32.7 µM | – | 58.9 µM |
